Reference: patent US12624012B2, “14-chloro-β-elemene nitric oxide donor derivative and preparation method and use thereof” (HANGZHOU NORMAL UNIVERSITY, priority 2021, dated 2026)
Read-outs that look alike come from different tables or passages of the source.

Assays:
[1] = tested on: human brain glioma U87MG-LUC; assay: In vivo anti-tumor activity against malignant brain glioma (in situ U87MG-LUC model); set-up: species or system BABLc/nude mice; settings: for growth of malignant brain gliomas in mice: after administration for 3 weeks; for brain weight / living and physical conditions of mice / tumor volume / bioluminescence signal intensity of gliomas: versus model group; for bioluminescence signal intensity of gliomas: which increases rapidly
Description: • Source, germ line, strain: BABLc/nude mice, provided by Shanghai Slaughter Laboratory Animal Co., Ltd., China. • Experimental animal production license: SOCK (Shanghai) 2017-0005 • Certificate of Conformity No.: 20170005040021 • Experimental animal use license: SYXK (Su) 2017-0040 • Age: 4-5 weeks • Sex: female • Number of animals: 5 animals per group, 15 animals in total Experimental Instrument: • Small animal in vivo 3D imaging system Spectrum, PerkinElmer
The cultured human brain glioma U87MG-LUC cell suspension with a concentration of 5×10^7 cells/mL was collected and each animal was inoculated in situ with 20 μL of the cell suspension. 10% chloral hydrate was injected intraperitoneally to anesthetize the mice, and the heads of the mice were fixed with a stereotaxic instrument. The skin of the head was disinfected with an alcohol swab. The skin of the head was cut along the direction of midline of the brain at its slightly right. The right hemisphere was taken as the reference point for fontanelle, 2 mm to the right of the midline, and 1 mm in front as the entry point, and the skull was ground open with a micro-abrasive drill. The cells were fully resuspended with a gun head, a syringe was used to extract the cell suspension. A vertical needle fixed by a stereotaxic instrument was used to feed 3.5 mm and quit 0.5 mm, then stood for 1 min and slowly injected the cells. After injection, the needle was stood for 1 min and slowly withdrawn. Alcohol swabs were used to disinfect the skin, and mice were put back into the feeding cages to wake up naturally after suturing the skin with stitches.
After 14 days of cell inoculation, the animals were randomly grouped, with 5 animals in each group. At the same time, each group of nude mice began to administer drugs. The drug administration protocol is shown in the group and drug administration protocol. At the end of the experiment, the nude mice were executed immediately. The brain tissues were surgically stripped, photographed, and weighed.
Two animals in each group were selected and injected intraperitoneally with Luc bioluminescence signal substrate, 100 μL/each animal, before administration, 1 week, 2 weeks, and 3 weeks after drug administration, respectively. 10 min later, the mice were anesthetized with isoflurane and placed on black box loading platform of an instrument for in vivo imaging detection to observe the bioluminescence signal of in situ tumors in mice's brains.

[2] = tested on: SW620; assay: In vitro anti-tumor activity evaluation test (CCK-8), SW620; format: cell-based, human; settings: SW620, 72 h; for inhibition at 1 µM: read-out: Inhibitory rates against tumor cell lines; for IC50: read-out: IC50 against different tumor cell lines
Method: (§1) • (1) Cells were digested and counted. Cell suspensions (H520, SW620 5.0×10^4 cells/mL, and U87MG 3.5×10^4 cells/mL) were prepared. 100 μL of cell suspension was added to each well of a 96-well cell culture plate. • (2) The 96-well cell culture plate was incubated in a 37° C., 5%, CO2 incubator for 24 h. • (3) A drug was diluted with a culture medium to a desired working solution concentration. 100 μL of the corresponding drug-containing culture medium was added to each well. At the same time, a negative control group and a positive control group were set up. • (4) The 96-well cell culture plate was incubated in a 37° C., 5%, CO2 incubator for 72 h. • (5) The 96-well plate was stained with CCK-8, and at λ=450 nm, the OD value was determined. • 1) 10 μL of CCK-8 was added to each well. The culture plate continued to be incubated in the incubator for 2-3 h. • 2) The culture plate was rocked for 10 min to gently mix and remove air bubbles from the 96-well plate. • 3) At λ=450 nm, the OD value of each well was read by the enzyme marker, and the inhibitory rates were calculated. • (6) According to the following equation (1), the growth inhibitory rate of the tumor cells was obtained. The obtained results were substituted into an IC 50 calculation software SPSS17.0 to find out the IC50 value.

[3] = tested on: U87MG; assay: In vitro anti-tumor activity evaluation test (CCK-8), U87MG; format: cell-based, human; settings: U87MG, 72 h; for inhibition at 1 µM: read-out: Inhibitory rates against tumor cell lines; for IC50: read-out: IC50 against different tumor cell lines
Method: as §1

[4] = tested on: NCI-H520; assay: In vitro anti-tumor activity evaluation test (CCK-8), NCI-H520; format: cell-based, human; settings: NCI-H520, 72 h; for inhibition at 1 µM: read-out: Inhibitory rates against tumor cell lines; for IC50: read-out: IC50 against different tumor cell lines
Method: as §1

[5] = In vitro NO release test (incubation with L-cysteine, OD at 550 nm); settings: 100 μM solution with cysteine solution, 37° C.
Method: • (1) Sodium nitrite solutions with different concentrations were prepared. A calibration curve was drawn. • (2) The sample was treated. A 100 μM solution was prepared. 2.5 mL of the prepared compound solution and 2.5 mL of the cysteine solution were taken and incubated at 37° C. for 120 min, and the resulting mixture was sampled at different time points. • (3) A blank hole and a standard hole were set. 160 μL of the sample was collected and mixed evenly with 0.08 mL of a developer and stood at 37° C. for 15 min. At λ=550 nm, the OD value of absorbance was measured by the enzyme marker. The NO release levels were obtained by substituting the value into the standard curve.

With `C=C[C@]1(C)CC[C@@H](C(=C)CN(C)CCOC(=O)CCCC(=O)OCC#CCOc2no[n+]([O-])c2S(=O)(=O)c2ccccc2)C[C@H]1C(=C)CCl` [Example 4] the “growth of malignant brain gliomas in mice” value [1] was “effectively inhibited”, the “blocking of tumor growth” value ([1]; last week of administration (3 weeks)) was > 90% and the brain weight [1] was “significantly lighter than that of the model group”. For the same compound, the “living and physical conditions of mice” value [1] was “much better than the model group”, the tumor volume [1] was “significantly smaller than that in the model group” and the “bioluminescence signal intensity of gliomas” value [1] was “declines dramatically”. The inhibition at 1 µM ([2]; Homo sapiens, SW-620, 1 μM) was 47.5 ± 3.7%, the IC50 ([2]; Homo sapiens, SW-620) was 858 ± 33 nM and the inhibition at 1 µM ([3]; Homo sapiens, U-87 MG, 1 μM) was 55.5 ± 1.9%. The IC50 ([3]; Homo sapiens, U-87 MG) was 369 ± 13 nM, the inhibition at 1 µM ([4]; Homo sapiens, 1 μM) was 48.7 ± 2% and the IC50 ([4]; Homo sapiens) was 719 ± 17 nM. For the same compound, the NO-release concentrations ([5]; 5 min) was 12.53 µM, the NO-release concentrations ([5]; 10 min) was 14.80 µM and the NO-release concentrations ([5]; 20 min) was 19.55 µM. For the same compound, the NO-release concentrations ([5]; 30 min) was 23.6 µM, the NO-release concentrations ([5]; 60 min) was 42.31 µM and the NO-release concentrations ([5]; 90 min) was 66.97 µM. For the same compound, the NO-release concentrations ([5]; 120 min) was 93.18 µM.

For `C=C[C@]1(C)CC[C@@H](C(=C)CN2CCCC(COC(=O)CCCC(=O)OCC#CCOc3no[n+]([O-])c3S(=O)(=O)c3ccccc3)C2)C[C@H]1C(=C)CCl` (stereo partly drawn) [Example 20, 4-((4-((5-((1-(2-((1R,3R,4S)-3-(3-chloroprop-1-en-2-yl)-4-methyl-4-vinylcyclohexyl)allyl)piperidin-3-yl)methoxyl)-5-oxopentanoyl)oxy)but-2-yn-1-yl)oxy)-3-(phenylsulfonyl)-1,2,5-oxadiazole 2-oxide], the inhibition at 1 µM ([2]; Homo sapiens, SW-620, 1 μM) was 43.2 ± 1.8%, the inhibition at 1 µM ([3]; Homo sapiens, U-87 MG, 1 μM) was 53.9 ± 0.6% and the IC50 ([3]; Homo sapiens, U-87 MG) was 1110 ± 52 nM. For the same compound, the inhibition at 1 µM ([4]; Homo sapiens, 1 μM) was 44.5 ± 2.4%, the IC50 ([4]; Homo sapiens) was 1180 ± 66 nM and the NO-release concentrations ([5]; 5 min) was 15.19 µM. The NO-release concentrations ([5]; 10 min) was 17.57 µM, the NO-release concentrations ([5]; 20 min) was 21.33 µM and the NO-release concentrations ([5]; 30 min) was 25.52 µM. For the same compound, the NO-release concentrations ([5]; 60 min) was 39.29 µM, the NO-release concentrations ([5]; 90 min) was 58.12 µM and the NO-release concentrations ([5]; 120 min) was 77.28 µM.

For `C=C[C@]1(C)CC[C@@H](C(=C)CN2CCN(CCOC(=O)CCC(=O)OCCOc3no[n+]([O-])c3S(=O)(=O)c3ccccc3)CC2)C[C@H]1C(=C)CCl` [Example 21, 4-(2-((4-(2-(4-(2-((1R,3R,4S)-3-(3-chloroprop-1-en-2-yl)-4-methyl-4-vinylcyclohexyl)allyl)piperazin-1-yl)ethyoxyl)-4-oxobutanoyl)oxy)ethyoxyl)-3-(phenylsulfonyl)-1,2,5-oxadiazole 2-oxide], the inhibition at 1 µM ([2]; Homo sapiens, SW-620, 1 μM) was 43.6 ± 2.5%, the inhibition at 1 µM ([3]; Homo sapiens, U-87 MG, 1 μM) was 52.6 ± 1% and the IC50 ([3]; Homo sapiens, U-87 MG) was 926 ± 52 nM. For the same compound, the inhibition at 1 µM ([4]; Homo sapiens, 1 μM) was 47.3 ± 2.6%, the NO-release concentrations ([5]; 5 min) was 0.08 µM and the NO-release concentrations ([5]; 10 min) was 0.41 µM. The NO-release concentrations ([5]; 20 min) was 0.99 µM, the NO-release concentrations ([5]; 30 min) was 1.64 µM and the NO-release concentrations ([5]; 60 min) was 2.98 µM. For the same compound, the NO-release concentrations ([5]; 90 min) was 6.43 µM and the NO-release concentrations ([5]; 120 min) was 10.20 µM.

With `C=C[C@]1(C)CC[C@@H](C(=C)CN2CCN(CCOC(=O)CCCC(=O)OCCOc3no[n+]([O-])c3S(=O)(=O)c3ccccc3)CC2)C[C@H]1C(=C)CCl` [Example 22] the inhibition at 1 µM ([2]; Homo sapiens, SW-620, 1 μM) was 42.8 ± 0.5%, the inhibition at 1 µM ([3]; Homo sapiens, U-87 MG, 1 μM) was 52.4 ± 2% and the IC50 ([3]; Homo sapiens, U-87 MG) was 372 ± 6 nM. It also gave an inhibition at 1 µM ([4]; Homo sapiens, 1 μM) of 44.1 ± 2.4%, an IC50 ([4]; Homo sapiens) of 962 ± 54 nM and an NO-release concentrations ([5]; 5 min) of 0.33 µM. The NO-release concentrations ([5]; 10 min) was 0.90 µM, the NO-release concentrations ([5]; 20 min) was 1.35 µM and the NO-release concentrations ([5]; 30 min) was 1.91 µM. It also gave an NO-release concentrations ([5]; 60 min) of 4.05 µM, an NO-release concentrations ([5]; 90 min) of 7.20 µM and an NO-release concentrations ([5]; 120 min) of 10.51 µM.

For `C=C[C@]1(C)CC[C@@H](C(=C)CN2CCN(CCOC(=O)CCC(=O)OCC#CCOc3no[n+]([O-])c3S(=O)(=O)c3ccccc3)CC2)C[C@H]1C(=C)CCl` [Example 23, 4-((4-((4-(2-(4-(2-((1R,3R,4S)-3-(3-chloroprop-1-en-2-yl)-4-methyl-4-vinylcyclohexyl)allyl)piperazin-1-yl)ethyoxyl)-4-oxobutanoyl)oxy)but-2-yn-1-yl)oxy)-3-(phenylsulfonyl)-1,2,5-oxadiazole 2-oxide], the inhibition at 1 µM ([2]; Homo sapiens, SW-620, 1 μM) was 21.2 ± 2.1%, the inhibition at 1 µM ([3]; Homo sapiens, U-87 MG, 1 μM) was 33.4 ± 1.5% and the inhibition at 1 µM ([4]; Homo sapiens, 1 μM) was 30.3 ± 2.9%. The NO-release concentrations ([5]; 5 min) was 4.74 µM, the NO-release concentrations ([5]; 10 min) was 5.95 µM and the NO-release concentrations ([5]; 20 min) was 7.49 µM. It also gave an NO-release concentrations ([5]; 30 min) of 7.63 µM, an NO-release concentrations ([5]; 60 min) of 8.44 µM and an NO-release concentrations ([5]; 90 min) of 13.57 µM. The NO-release concentrations ([5]; 120 min) was 17.82 µM.

`C=C[C@]1(C)CC[C@@H](C(=C)CN2CCN(CCOC(=O)CCCC(=O)OCC#CCOc3no[n+]([O-])c3S(=O)(=O)c3ccccc3)CC2)C[C@H]1C(=C)CCl` [Example 24, 4-((4-((5-(2-(4-(2-((1R,3R,4S)-3-(3-chloroprop-1-en-2-yl)-4-methyl-4-vinylcyclohexyl)allyl)piperazin-1-yl)ethyoxyl)-5-oxyglutaryl)oxy)but-2-yn-1-yl)oxy)-3-(phenylsulfonyl)-1,2,5-oxadiazole 2-oxide] gave an inhibition at 1 µM ([2]; Homo sapiens, SW-620, 1 μM) of 43.2 ± 5.5%, an inhibition at 1 µM ([3]; Homo sapiens, U-87 MG, 1 μM) of 50.3 ± 1.2% and an IC50 ([3]; Homo sapiens, U-87 MG) of 960 ± 75 nM. It also gave an inhibition at 1 µM ([4]; Homo sapiens, 1 μM) of 46.8 ± 2.1%, an IC50 ([4]; Homo sapiens) of 1062 ± 2 nM and an NO-release concentrations ([5]; 5 min) of 10.64 µM. The NO-release concentrations ([5]; 10 min) was 11.37 µM, the NO-release concentrations ([5]; 20 min) was 12.38 µM and the NO-release concentrations ([5]; 30 min) was 13.68 µM. For the same compound, the NO-release concentrations ([5]; 60 min) was 18.24 µM, the NO-release concentrations ([5]; 90 min) was 25.90 µM and the NO-release concentrations ([5]; 120 min) was 34.64 µM.

With `C=C[C@]1(C)CC[C@@H](C(=C)C)C[C@H]1C(=C)C` [β-elemene] the “growth of malignant brain gliomas in mice” value [1] was “effectively inhibited”, the “inhibitory activity (bioluminescence signal of glioma)” value ([1]; first week of administration) was > 20% and the brain weight [1] was “significantly lighter than that of the model group”. For the same compound, the “living and physical conditions of mice” value [1] was “much better than the model group”, the tumor volume [1] was “significantly smaller than that in the model group” and the “bioluminescence signal intensity of gliomas” value [1] was “declines dramatically”. For the same compound, the “Inhibitory rates against tumor cell lines” value (shortened to “Inhibitory rates”) ([2]; 1 μM) was 2.5 ± 4.1%, the IC50 [2] was > 100000 nM and the “Inhibitory rates” value ([3]; 1 μM) was 4.3 ± 2.2%. For the same compound, the IC50 [3] was > 100000 nM, the “Inhibitory rates” value ([4]; 1 μM) was 3.2 ± 0.7% and the IC50 [4] was > 100000 nM.
